Earlier results as cited in patent US7488791B2, “Mixture of peptides derived from E6 and/or E7 papillomavirus proteins and uses thereof” (priority 2001, dated 2009).
Read-outs that look alike come from different tables or passages of the source.

Legend:
cells from patients [1] = details: Kadish et al.; cited from earlier work
cells in the blood = details: Tsukui et al., 140 HPV16+ patients; cited from earlier work
cells from patients [2] = details: Nakagawa et al., cited from earlier work; for Proliferation of cells from patients, responders/tested, normal: normal individuals
cells from patients [3] = details: cited from earlier work; for Proliferation of cells from patients infected with HPV, responders/tested: De Gruijl et al.
[4] = system: E7-specific T lymphocyte lines; details: Altmann et al.; cited from earlier work
cells from patients [5] = details: Luxton et al., cited from earlier work; for Proliferation of cells from patients, responders/tested, normal: normal individuals

Molecule: CC[C@H](C)[C@H](NC(=O)[C@@H](NC(=O)[C@@H](NC(=O)[C@H](CCC(N)=O)NC(=O)[C@H](CC(C)C)NC(=O)[C@H](CCC(=O)O)NC(=O)[C@@H](NC(=O)[C@H](CS)NC(=O)[C@H](CC(C)C)NC(=O)[C@H](CCC(N)=O)NC(=O)[C@@H]1CCCN1C(=O)[C@H](CC(C)C)NC(=O)[C@H](CCCCN)NC(=O)[C@@H](N)CCCNC(=N)N)[C@@H](C)O)[C@@H](C)O)[C@@H](C)O)C(=O)N[C@@H](Cc1c[nH]cn1)C(=O)O [E6 17-31, R K L P Q L C T E L Q T T I H]
- Proliferation of cells from patients (CIN or normal), responders/tested (cells from patients [1]): 12/23

Molecule: E6: 1-31: HPV16 E6 peptide, positions 1-31, Kadish et al. (MHQKRTAMFQDPQERPRKLPQLCTELQTTIH; UniProt P03126 1-31, looked up, fragment)
- Proliferation of cells from patients (CIN or normal), responders/tested (cells from patients [1]): 17/48

Molecule: E6: 1-45: HPV16 E6 peptide, positions 1-45, Tsukui et al. (MHQKRTAMFQDPQERPRKLPQLCTELQTTIHDIILECVYCKQQLL; UniProt P03126 1-45, looked up, fragment)
- Secretion of IL2 (activation of cells) by patients, responders/tested (cells in the blood): 0/140

Molecule: E6: 4-29: HPV16 E6 peptide, positions 4-29, Nakagawa et al. (KRTAMFQDPQERPRKLPQLCTELQTT; UniProt P03126 4-29, looked up, fragment)
- Proliferation of cells from patients, responders/tested, CIN (cells from patients [2]): 3/22
- Proliferation of cells from patients, responders/tested, normal (cells from patients [2]): 12/65

Molecule: E6: 22-51: HPV16 E6 peptide, positions 22-51, Kadish et al. (LCTELQTTIHDIILECVYCKQQLLRREVYD; UniProt P03126 22-51, looked up, fragment)
- Proliferation of cells from patients (CIN or normal), responders/tested (cells from patients [1]): 17/46

Molecule: E6: 24-45: HPV16 E6 peptide, positions 24-45, Nakagawa et al. (TELQTTIHDIILECVYCKQQLL; UniProt P03126 24-45, looked up, fragment)
- Proliferation of cells from patients, responders/tested, CIN (cells from patients [2]): 1/22
- Proliferation of cells from patients, responders/tested, normal (cells from patients [2]): 15/65

Molecule: E6: 42-71: HPV16 E6 peptide, positions 42-71, Kadish et al. (QQLLRREVYDFAFRDLCIVYRDGNPYAVCD; UniProt P03126 42-71, looked up, fragment)
- Proliferation of cells from patients (CIN or normal), responders/tested (cells from patients [1]): 8/43

Molecule: E6: 59-112: HPV16 E6 peptide, positions 59-112, Tsukui et al. (IVYRDGNPYAVCDKCLKFYSKISEYRHYCYSLYGTTLEQQYNKPLCDLLIRCIN; UniProt P03126 59-112, looked up, fragment)
- Secretion of IL2 (activation of cells) by patients, responders/tested (cells in the blood): 6/140

Molecule: E6: 62-91: HPV16 E6 peptide, positions 62-91, Kadish et al. (RDGNPYAVCDKCLKFYSKISEYRHYCYSLY; UniProt P03126 62-91, looked up, fragment)
- Proliferation of cells from patients (CIN or normal), responders/tested (cells from patients [1]): 0/30

Molecule: E6: 82-111: HPV16 E6 peptide, positions 82-111, Kadish et al. (EYRHYCYSLYGTTLEQQYNKPLCDLLIRCI; UniProt P03126 82-111, looked up, fragment)
- Proliferation of cells from patients (CIN or normal), responders/tested (cells from patients [1]): 5/34

Molecule: E6: 102-131: HPV16 E6 peptide, positions 102-131, Kadish et al. (PLCDLLIRCINCQKPLCPEEKQRHLDKKQR; UniProt P03126 102-131, looked up, fragment)
- Proliferation of cells from patients (CIN or normal), responders/tested (cells from patients [1]): 14/43

Molecule: E6: 109-122: HPV16 E6 peptide, positions 109-122, Nakagawa et al. (RCINCQKPLCPEEK; UniProt P03126 109-122, looked up, fragment)
- Proliferation of cells from patients, responders/tested, CIN (cells from patients [2]): 1/22
- Proliferation of cells from patients, responders/tested, normal (cells from patients [2]): 8/65

Molecule: E6: 111-158: HPV16 E6 peptide, positions 111-158, Tsukui et al. (INCQKPLCPEEKQRHLDKKQRFHNIRGRWTGRCMSCCRSSRTRRETQL; UniProt P03126 111-158, looked up, fragment)
- Secretion of IL2 (activation of cells) by patients, responders/tested (cells in the blood): 11/140

Molecule: E6: 117-131: HPV16 E6 peptide, positions 117-131, Kadish et al. (LCPEEKQRHLDKKQR; UniProt P03126 117-131, looked up, fragment)
- Proliferation of cells from patients (CIN or normal), responders/tested (cells from patients [1]): 12/23

Molecule: E6: 122-151: HPV16 E6 peptide, positions 122-151, Kadish et al. (KQRHLDKKQRFHNIRGRWTGRCMSCCRSSR; UniProt P03126 122-151, looked up, fragment)
- Proliferation of cells from patients (CIN or normal), responders/tested (cells from patients [1]): 19/48

Molecule: E6: 137-151: HPV16 E6 peptide, positions 137-151, Kadish et al. (GRWTGRCMSCCRSSR; UniProt P03126 137-151, looked up, fragment)
- Proliferation of cells from patients (CIN or normal), responders/tested (cells from patients [1]): 9/23

Molecule: E7: 1-32: HPV16 E7 peptide, positions 1-32, De Gruijl et al.
- Proliferation of cells from patients infected with HPV, responders/tested (cells from patients [3]): 8/28

Molecule: E7: 1-35: HPV16 E7 peptide, positions 1-35, Tsukui et al.
- Secretion of IL2 (activation of cells) by patients, responders/tested (cells in the blood): 3/140

Molecule: E7: 5-18: HPV16 E7 peptide, positions 5-18, Altmann et al. (TPTLHEYMLDLQPE; UniProt P03129 5-18, looked up, fragment)
- Recognition by T lymphocyte line or clone from a patient [4]: Recognized by line from a DR1

Molecule: E7: 17-34: HPV16 E7 peptide, positions 17-34, Altmann et al. (PETTDLYCYEQLNDSSEE; UniProt P03129 17-34, looked up, fragment)
- Recognition by T lymphocyte line or clone from a patient [4]: Recognized by line from a DR4

Molecule: E7: 19-56: HPV16 E7 peptide, positions 19-56, De Gruijl et al. (TTDLYCYEQLNDSSEEEDEIDGPAGQAEPDRAHYNIVT; UniProt P03129 19-56, looked up, fragment)
- Proliferation of cells from patients infected with HPV, responders/tested (cells from patients [3]): 10/28

Molecule: E7: 21-30: HPV16 E7 peptide, positions 21-30, Nakagawa et al. (DLYCYEQLND; UniProt P03129 21-30, looked up, fragment)
- Proliferation of cells from patients, responders/tested, CIN (cells from patients [2]): 0/22
- Proliferation of cells from patients, responders/tested, normal (cells from patients [2]): 5/65

Molecule: E7: 27-60: HPV16 E7 peptide, positions 27-60, Tsukui et al. (QLNDSSEEEDEIDGPAGQAEPDRAHYNIVTFCCK; UniProt P03129 27-60, looked up, fragment)
- Secretion of IL2 (activation of cells) by patients, responders/tested (cells in the blood): 4/140

Molecule: E7: 40-54: HPV16 E7 peptide, positions 40-54, Luxton et al. (GPAGQAEPDRAHYNI; UniProt P03129 40-54, looked up, fragment)
- Proliferation of cells from patients, responders/tested, CIN (cells from patients [5]): 0 CIN and 0 normal
- Proliferation of cells from patients, responders/tested, normal (cells from patients [5]): 0 CIN and 0 normal

Molecule: E7: 43-80: HPV16 E7 peptide, positions 43-80, De Gruijl et al. (GQAEPDRAHYNIVTFCCKCDSTLRLCVQSTHVDIRTLE; UniProt P03129 43-80, looked up, fragment)
- Proliferation of cells from patients infected with HPV, responders/tested (cells from patients [3]): 10/28

Molecule: E7: 44-57: HPV16 E7 peptide, positions 44-57, Nakagawa et al. (QAEPDRAHYNIVTF; UniProt P03129 44-57, looked up, fragment)
- Proliferation of cells from patients, responders/tested, CIN (cells from patients [2]): 3/22
- Proliferation of cells from patients, responders/tested, normal (cells from patients [2]): 9/65

Molecule: E7: 45-64: HPV16 E7 peptide, positions 45-64, Luxton et al. (AEPDRAHYNIVTFCCKCDST; UniProt P03129 45-64, looked up, fragment)
- Proliferation of cells from patients, responders/tested, CIN (cells from patients [5]): 2/31
- Proliferation of cells from patients, responders/tested, normal (cells from patients [5]): 1/15

Molecule: E7: 51-98: HPV16 E7 peptide, positions 51-98, Tsukui et al. (HYNIVTFCCKCDSTLRLCVQSTHVDIRTLEDLLMGTLGIVCPICSQKP; UniProt P03129 51-98, looked up, fragment)
- Secretion of IL2 (activation of cells) by patients, responders/tested (cells in the blood): 7/140

Molecule: E7: 55-74: HPV16 E7 peptide, positions 55-74, Luxton et al. (VTFCCKCDSTLRLCVQSTHV; UniProt P03129 55-74, looked up, fragment)
- Proliferation of cells from patients, responders/tested, CIN (cells from patients [5]): 2/31
- Proliferation of cells from patients, responders/tested, normal (cells from patients [5]): 1/15

Molecule: E7: 62-79: HPV16 E7 peptide, positions 62-79, Nakagawa et al. (DSTLRLCVQSTHVDIRTL; UniProt P03129 62-79, looked up, fragment)
- Proliferation of cells from patients, responders/tested, CIN (cells from patients [2]): 3/22
- Proliferation of cells from patients, responders/tested, normal (cells from patients [2]): 10/65

Molecule: E7: 62-80: HPV16 E7 peptide, positions 62-80, Kadish et al. (DSTLRLCVQSTHVDIRTLE; UniProt P03129 62-80, looked up, fragment)
- Proliferation of cells from patients (CIN or normal), responders/tested (cells from patients [1]): 11/35

Molecule: E7: 67-98: HPV16 E7 peptide, positions 67-98, De Gruijl et al. (LCVQSTHVDIRTLEDLLMGTLGIVCPICSQKP; UniProt P03129 67-98, looked up, fragment)
- Proliferation of cells from patients infected with HPV, responders/tested (cells from patients [3]): 17/28
- Stimulation of the cells of patients, in words (cells from patients [3]; de Gruijl et al.): stimulates the cells of a majority of patients

Molecule: E7: 69-82: HPV16 E7 peptide, positions 69-82, Altmann et al. (VQSTHVDIRTLEDL; UniProt P03129 69-82, looked up, fragment)
- Recognition by T lymphocyte line or clone from a patient [4]: Recognized by clone from a DR4

Molecule: E7: 70-98: HPV16 E7 peptide, positions 70-98, Luxton et al. (QSTHVDIRTLEDLLMGTLGIVCPICSQKP; UniProt P03129 70-98, looked up, fragment)
- Proliferation of cells from patients, responders/tested, CIN (cells from patients [5]): 4/31
- Proliferation of cells from patients, responders/tested, normal (cells from patients [5]): 7/15

Molecule: E7: 72-97: HPV16 E7 peptide, positions 72-97, Kadish et al. (THVDIRTLEDLLMGTLGIVCPICSQK; UniProt P03129 72-97, looked up, fragment)
- Proliferation of cells from patients (CIN or normal), responders/tested (cells from patients [1]): 19/48
